Assay results as given in patent publication US20150030702A1, “NITRIC OXIDE-[…] DRESSINGS” (priority 2007, published 2015).
Like-named read-outs stand apart in the source and are kept apart here.

What was measured:
[1] = cited from earlier work
[2] = nitrite 30 mM, 10 mM hydrochloric acid, hydroquinone 30 mM (FIG. 1); followed by a further slow increase
Method: The pH was measured prior to addition of hydroquinone and then at time-points indicated following addition of hydroquinone.
The concentration of nitrosothiol concentration can be estimated from the absorbance reading using the molar absorption coefficient for nitrosothiols=approximately 10,000 M^−1 cm^−1.

[3] = under normal conditions; cited from earlier work

SMILES: O=NO [Nitrite, nitrite]
- pKa ([1]; at 25° C.): about 3.4
- pKa [1]: 3.4

SMILES: Oc1ccc(O)cc1 [hydroquinone, Hydroquinone]
- pH after rapid increase in the presence of hydroquinone [2]: about 5.0

SMILES: O=C(O)O [bicarbonic acid]
- pKa [1]: 6.3

SMILES: [N]=O [NO, nitric oxide]
- Maximum solubility in water [3]: approximately 1.7 mM
